Measurements as given in patent publication US6664231B1, “Anti-fungal peptides” (priority 1993, dated 2003).
Read-outs that look alike come from different tables or passages of the source.

Key:
Candida glabrata = assay: Radial diffusion assay, Candida species (Table 2); type: cell-based
Protocol: (§1) The anti-fungal activity of Domain III derived peptides was also evaluated in vitro against a variety of fungal species, including Candida glabrata, Candida krusei, Candida lusitaniae, Candida parapsilosis, and Candida tropicalis. For these experiments, one colony of each of the above-listed Candida strains was picked from a Sabouraud's dextrose agar (SDA) plate and inoculated into 5 mL of Sabouraud's dextrose broth (SDB, 2% dextrose and 1% neopeptone) or, for C. krusei, Yeast Malt broth (YM, Becton Dickenson, Cockeysville, Md., cat no. BL 11405) in 12 mL polyproplyene snap-cap tubes. The tube cultures were incubated overnight with shaking at 37° C.
(§2) Cultures were harvested when the OD570 of a 1:10 dilution was greater than or equal to the following values: 0.083 for Candida glabrata, 0.154 for Candida krusei, 0.117 for Candida lusitaniae, 0.076 for Candida parapsilosis, and 0.192 for Candida tropicalis. Cells were centrifuged for 7 minutes in an Eppendorf microfuge at 3,000 rpm (about 1,500 g). The cell pellet was resuspended in 1 mL PBS and approximately 1×10^7 cells in about 0.5 mL were added to 10 mL of cooled underlay agar (3% SBD, 1% agarose, 0.02% Tween 20, 10 mM sodium phosphate buffer, pH 7.4 at about 45° C.). The suspension was poured into square petri plates, allowed to solidify, and wells cut as described above.
(§3) Peptides were two-fold serially diluted with D-PBS from about 20 μL of a starting concentration of approximately 1 mg/mL. Five μL of peptide dilution were added per well and allowed to diffuse for at least about 30 minutes into the agar at […] (to allow complete diffusion). Then 10 mL of molten overlayer agarose (6% SDB, 1% agarose, 10 mM sodium phosphate buffer, pH 7.4 at about 45° C.) were added and the plates were incubated inverted at […] overnight. Plates were stained with a dilute Coomassie solution, inhibition zones were measured with calipers and net areas were calculated, then converted to pmole values by PROBIT analysis.

Candida krusei = assay: Radial diffusion assay, Candida species (Table 2); type: cell-based
Protocol: as §1, §2, §3

Candida lusitaniae = assay: Radial diffusion assay, Candida species (Table 2); type: cell-based
Protocol: as §1, §2, §3

Candida parapsilosis = assay: Radial diffusion assay, Candida species (Table 2); type: cell-based
Protocol: as §1, §2, §3

Candida tropicalis = assay: Radial diffusion assay, Candida species (Table 2); type: cell-based
Protocol: as §1, §2, §3

[1] = test system: Trychophyton rubrum ATCC 28188; assay: organism not typed; type: cell-based
Protocol: The anti-fungal activity of Domain III derived peptides was evaluated against a variety of fungal species, including species of Candida. Cryptococcus, Fusarium, Trichophyton, and Aspergillus, by an additional assay protocol utilizing Alamar Blue. Alamar Blue is an indicator dye formulated to measure quantitatively the proliferation of a variety of human or animal cells, bacteria, or fungi. It consists of an oxidation-reduction (REDOX) indicator that yields a colorimetric change in response to metabolic activity. For these experiments, species of Candida and Cryptococcus were grown in Sabouraud's dextrose broth (SDB) overnight. Strains of filamentous fungi (Aspergilius, Fusanum, Trichophyton) were obtained by irrigation of a confluent culture from a petri dish. Cells were washed and adjusted to a concentration of 5.0×10^3/mL in fresh SDB. […] Controls included amphotericin B, fluconazole, ketoconazole and griseofulvin. Antifungal drugs were also diluted in the same manner. Assays were performed in 96-well microuiter plates. […] The wells to be plated were determined by OD590 readings. The lowest concentration of peptide which maintained the blue color (or OD reading) of the blank was chosen along with the next two higher concentrations. Plates were allowed to grow for 18-48 hours depending on the rate of growth of each fungus. Minimal fungicidal activity (MFC) was determined as a 99.9% killing of the starting inoculum.

in vitro = in vitro ADME, rat or human serum; settings: serum, half-life of peptide in serum as detected by HPLC analysis; read-out: HPLC Peptide in Serum t ½ (converted)
Protocol: For these serum stability experiments, peptides were prepared by solid phase peptide sythesis and purified to 94% or greater purity as described in Example 1. Blood was collected from metaphane anesthesized rats by aortic bleed into Vacutainer™ tubes and allowed to clot at room temperature for approximately 30 minutes, then centrifuged at 3000 rpm (about 1000×g) for 10 minutes at room temperature and the serum aspirated. In addition, frozen human serum (North American Biologics, Inc., Miami, Fla., cat. no. 2140, lot no. 94115) was thawed at room temperature and filtered through a 0.45 μm membrane before use.
A 1 mg/mL solution of an exemplary XMP peptide to be tested was added to an equal volume of either rat or human serum described above and maintained at 37° C. At 0, 1, 2, and 4 hours, 100 μL were removed and processed by solid phase extraction for HPLC analysis as follows. Serum samples were prepared for HPLC using C-18 Sep-Pak cartridges (1 mL cartridge with 100 mg of sorbent, Waters Corp., Milford, Mass.). One hundred μL of serum sample were added to an equal volume of 1% TFA and mixed for 30 seconds on a Vortex mixer. The sample was then applied to a C-18 Sep-Pak cartridge that had been conditioned by washing with 1 mL of methanol followed by 1 mL Milli-Q water. Weakly reed components were eluted by washing with 1 mL of 0. 1% TFA. The bound peptide was eluted with two volumes of 250 μL 80% acetonitrile/0.065% TFA.
The material eluted from the Sep-Pak cartridge was analyzed on a Michrom Ultaafast Microprotein Analyzer equipped with a 150 mm×1 mm, 5μ particle, 300 Å pore C-8 Zorbax column. The column oven was set to 40° C., the flow rate was 100 μL/minute, and injection volumes were typically 5-10 μL. HPLC was performed using 5% acetonitrile/0.1% TFA in water as mobile phase A, and 80% acetonitrile/0.065% TFA as mobile phase B. The eluate was monitored spectiophotometrically at 214 nm. Peptide standards were dissolved in mobile phase A at 0. 1 mg/mL. The gradient was 25-35% B/10 minutes followed by a 5 minute wash step of 100% B and reequilibration at 25% B for 10 minutes.

Row | Compound | Anti-fungal activity: pmol/30 mm^2 zone, Candida glabrata (Candida glabrata) | Anti-fungal activity: pmol/30 mm^2 zone, Candida krusei (Candida krusei) | Anti-fungal activity: pmol/30 mm^2 zone, Candida lusitaniae (Candida lusitaniae) | Anti-fungal activity: pmol/30 mm^2 zone, Candida parapsilosis (Candida parapsilosis) | Anti-fungal activity: pmol/30 mm^2 zone, Candida tropicalis (Candida tropicalis) | Minimum Fungicidal Concentration, Trychophyton rubrum ATCC 28188 [1] | half-life at 0.5 mg/mL (in vitro) | Minimum Fungicidal Concentration, Trychophyton rubrum ATCC 28188 ([1]; ATCC 28188)
1 | C[C@@H]1[C@H](O)[C@@H](C)/C=C/C=C/C=C/C=C/C=C/C=C/C=C/[C@H](O[C@@H]2O[C@H](C)[C@@H](O)[C@H](N)[C@@H]2O)C[C@@H]2O[C@](O)(C[C@@H](O)C[C@@H](O)[C@H](O)CC[C@@H](O)C[C@@H](O)CC(=O)O[C@H]1C)C[C@H](O)[C@H]2C(=O)O [Amphotericin B, amphotericin B, reference compound] | <17 pmol/30 mm^2 zone | 120 pmol/30 mm^2 zone | 35 pmol/30 mm^2 zone | 91 pmol/30 mm^2 zone | 108 pmol/30 mm^2 zone | 0.32 µg/mL |  | 
2 | H-KSKVGWLIQLFHKK-NH2 [XMP.13] | 1,022 pmol/30 mm^2 zone | 1,747 pmol/30 mm^2 zone | 746 pmol/30 mm^2 zone | 1,502 pmol/30 mm^2 zone | 452 pmol/30 mm^2 zone |  | 2.5 h | 
3 | H-SKVKWLIQLFHKK-NH2 [XMP.284] |  |  |  |  |  |  | 4.2 h | 5.0 µg/mL
